Data reported in ChEMBL document CHEMBL1154751, “Evaluation of di-sansalvamide A derivatives: synthesis, structure-activity relationship, and mechanism of action” (J Med Chem, 2009).

Tests used:
HCT-116 [1] = test: Growth inhibition of human HCT116 cells at 10 nM after 24 hrs by [3H]thymidine uptake assay; assay type: functional; settings: read-out: GI
[2] = Growth inhibition of human PL45 cells at 1000 nM after 24 hrs by [3H]thymidine uptake assay; assay type: functional; settings: read-out: GI
[3] = Growth inhibition of human WS1 cells at 62.5 nM after 24 hrs by [3H]thymidine uptake assay; assay type: functional; settings: read-out: GI
[4] = Growth inhibition of human PL45 cells at 62.5 nM after 24 hrs by [3H]thymidine uptake assay; assay type: functional; settings: read-out: GI
[5] = Growth inhibition of human WS1 cells at 500 nM after 24 hrs by [3H]thymidine uptake assay; assay type: functional; settings: read-out: GI
[6] = Growth inhibition of human PL45 cells after 24 hrs by [3H]thymidine uptake assay; assay type: functional, cell-based
[7] = Growth inhibition of human WS1 cells at 125 nM after 24 hrs by [3H]thymidine uptake assay; assay type: functional; settings: read-out: GI
HCT-116 [8] = test: Growth inhibition of human HCT116 cells after 24 hrs by [3H]thymidine uptake assay; assay type: functional, cell-based
[9] = Growth inhibition of human PL45 cells at 1 nM after 24 hrs by [3H]thymidine uptake assay; assay type: functional; settings: read-out: GI
[10] = Growth inhibition of human PL45 cells at 250 nM after 24 hrs by [3H]thymidine uptake assay; assay type: functional; settings: read-out: GI
[11] = Growth inhibition of human PL45 cells at 500 nM after 24 hrs by [3H]thymidine uptake assay; assay type: functional; settings: read-out: GI
HCT-116 [12] = test: Growth inhibition of human HCT116 cells at 20 nM after 24 hrs by [3H]thymidine uptake assay; assay type: functional; settings: read-out: GI
[13] = Growth inhibition of human WS1 cells at 250 nM after 24 hrs by [3H]thymidine uptake assay; assay type: functional; settings: read-out: GI
[14] = Growth inhibition of human WS1 cells at 1000 nM after 24 hrs by [3H]thymidine uptake assay; assay type: functional; settings: read-out: GI
[15] = Growth inhibition of human WS1 cells after 24 hrs by [3H]thymidine uptake assay; assay type: functional, cell-based
HCT-116 [16] = test: Growth inhibition of human HCT116 cells at 200 nM after 24 hrs by [3H]thymidine uptake assay; assay type: functional; settings: read-out: GI
HCT-116 [17] = test: Growth inhibition of human HCT116 cells at 50 nM after 24 hrs by [3H]thymidine uptake assay; assay type: functional; settings: read-out: GI
[18] = Growth inhibition of human WS1 cells at 1 nM after 24 hrs by [3H]thymidine uptake assay; assay type: functional; settings: read-out: GI
HCT-116 [19] = test: Growth inhibition of human HCT116 cells at 100 nM after 24 hrs by [3H]thymidine uptake assay; assay type: functional; settings: read-out: GI
[20] = Growth inhibition of human PL45 cells at 125 nM after 24 hrs by [3H]thymidine uptake assay; assay type: functional; settings: read-out: GI

C=CCNC1=C2C[C@@H](C)C[C@H](OC)[C@H](O)[C@@H](C)/C=C(\C)[C@H](OC(N)=O)[C@@H](OC)/C=C\C=C(/C)C(=O)NC(=CC1=O)C2=O [TANESPIMYCIN]
inhibition of growth at 0.01 µM (HCT-116 [1]): 0% | inhibition of growth at 1 µM [2]: 99% | inhibition of growth at 0.0625 µM [3]: 51.7% | inhibition of growth at 0.0625 µM [4]: 98% | inhibition of growth at 0.5 µM [5]: 76.3% | IC50 [6]: 7.7 nM | inhibition of growth at 0.125 µM [7]: 73.2% | IC50 (HCT-116 [8]): 56.5 nM | inhibition of growth at 0.001 µM [9]: 11.4% | inhibition of growth at 0.25 µM [10]: 99% | inhibition of growth at 0.5 µM [11]: 99% | inhibition of growth at 0.02 µM (HCT-116 [12]): 12% | inhibition of growth at 0.25 µM [13]: 66% | inhibition of growth at 1 µM [14]: 77.8% | IC50 [15]: 31.8 nM | inhibition of growth at 0.2 µM (HCT-116 [16]): 79% | inhibition of growth at 0.05 µM (HCT-116 [17]): 54% | inhibition of growth at 0.001 µM [18]: 18% | inhibition of growth at 0.1 µM (HCT-116 [19]): 72% | inhibition of growth at 0.125 µM [20]: 99%
